From US20170209413A1, “USE OF ASPARAGUSIC ACID AND DERIVATIVES THEREOF TO TREAT SYMPTOMS AND DISORDERS OF NEUROLOGICAL DISEASE” (priority 2016, published 2017)

Assays:
[1] = system: shaking from Parkinson disease; assay: hand writing skill test for relief of the shaking from Parkinson disease in one patient; assay type: in vivo, human
Protocol: A patient diagnosed with Parkinson's disease and in need of treatment by the methods disclosed herein was administered compositions comprising the compounds disclosed herein. The patient had been diagnosis with Parkinson's disease by two medical doctors, the family doctor and a neurologist. They had taken L-Dopa for over a year. The patient informed their doctors that they were no longer taking L-Dopa. They took nothing for their Parkinson's Disease for almost a year before beginning to take asparagusic acid.
The test for relief of the shaking from Parkinson disease was the patient's hand writing skill. Prior to treatment with asparagusic acid the patient could not write their name. […] Normally the ability to write was diminished within 12 hours, but their varied.
The asparagus top third was cut from the stalk and weighed. 50 to 100 grams was used per treatment. The tops were steamed for a short period of time. This was typically done by placing the asparagus tops in a pie plate and covered. No water was added. After a short heating period, for example heating in a microwave for 44 seconds on high, the asparagus is “self” steamed from water in the plant and may substantially help in the formation of asparagusic acid from asparaptine. […] Excess heating will decompose asparagusic acid and will likely form a dihydro byproduct by splitting the disulfide linkage.
A preparation as described above was taken at least two hours after eating. The asparagus was consumed immediately after heating with salt and taken with simple non-caffeine liquids such as water and white wine. No further food was consumed for at least an hour. […] One exception was found. […] It is noted that raw eggs contain many sulfur compounds.

[2] = boiling for 30 minutes; rearranges to 1,2,3-trithiane-5-carboxylic acid and 1,2-dithiacylopentene; cited from earlier work

| SMILES | effect on shaking, lipoic acid ([1]; 250 mg tablet, same manner in regards to food consumption as Example 1) | time until ability to write was diminished ([1]; one Parkinson's patient, after treatment, varied) [h] | relief of the shaking from Parkinson disease (patient's hand writing skill) ([1]; one Parkinson's patient, 50 to 100 grams asparagus tops, steamed a short time (microwave 44 seconds), taken at least two hours after eating, no food for at least an hour) | stability during cooking [2] |
| --- | --- | --- | --- | --- |
| O=C(O)CCCC[C@@H]1CCSS1 (racemic) [lipoic acid, reference compound] | no effect |  |  |  |
| O=C(O)C1CSSC1 [asparagusic acid, 1,2-dithiolane-4-carboxylic acid] |  | ≤ 12 | could easily write their name in a flowing easy manner | not vary stable |
